Earlier results in patent US10954181B2, “Process for selectively recovering a phenolic compound from feedstock comprising bio-crude and/or bio-oil” (Research Triangle Institute, priority 2018, dated 2021).

conditions: 25° C., in water; phenolic compounds present in biocrude

Compound | pKa at 25° C. (in water)
Cc1ccc(O)c(C)c1 [2,4-dimethylphneol] | 10.6
Cc1cccc(C)c1O [2,6-dimethylphenol] | 10.66
C=CCc1ccc(O)c(OC)c1 [Eugenol] | 10.19
COc1cc(CC(C)=O)ccc1O [Guaiacylacetone] | 9.88
COc1cc(CC(=O)O)ccc1O [Homovanillic acid] | 4.36
O=C(CO)c1ccccc1 [Hydroxyacetophenone] | 10.16
CCCc1ccc(O)c(OC)c1 [Propylguaiacol (Dihydroeugenol), Propylguaiacol] | 10.29
Benzenediol (catechol) | 9.96

Other lines, results leading:

pKa at 25° C. (in water) | Compound
10.42 | Cc1cccc(O)c1C [2,3-dimethylphenol]
10.57 | Cc1cc(C)c(O)cc1C [2,4,5-trimethylphenol]
10.88 | Cc1cc(C)c(O)c(C)c1 [2,4,6-trimethylphenol]
10.59 | C=CCc1cc(C)ccc1O [2-allyl-4-methylphenol]
10.27 | CCc1ccccc1O [2-ethylphenol]
10.38 | Cc1cc(C)cc(O)c1 [3,5-dimethylphenol]
9.9 | CCc1cccc(O)c1 [3-ethylphenol]
9.91 | Cc1ccc(O)c(O)c1 [4-methylcatechol]
9.98 | CCCc1ccc(O)cc1 [4-propylphenol]
10.3 | CCc1ccc(O)c(OC)c1 [Ethylguaiacol]
9.98 | COc1ccccc1O [Guaiacol]

same assay, conditions: Table 1, chemical information of targeted methoxyphenols

pKa | Compound
10.3 | CCc1ccc(O)c(OC)c1 [Ethylguaiacol]
9.98 | COc1ccccc1O [Guaiacol]

Compound | pKa
CCCc1ccc(O)c(OC)c1 [Propylguaiacol (Dihydroeugenol), Propylguaiacol] | 10.29
